Measured values published in US8957074B2 (Novartis AG, priority 2010, dated 2015).
Like-named read-outs stand apart in the source and are kept apart here.

Legend:
CDK4/cyclin D1 = CDK4/cyclin D1 (Homo sapiens (Human), UniProt P11802); assay: CDK4/cyclin D1 enzymatic activity assay (TR-FRET, phosphorylation of pRb at Ser780); format: biochemical; conditions: 0.3 nM CDK4/cyclin D1, 150 nM biotin-pRb (773-924), 3 μM ATP, 60 min at 22° C.; read-out: Biochemical CDK4 enzyme IC50
Summary of the method: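 Phosphorylation at pRb Ser780, detected by TR-FRET, gave IC50s and kinetics. Enzyme: baculovirus/Sf21-expressed human CDK4/cyclin D1. ATP at 3 μM initiated the reaction; EDTA (pH 8.0) stopped it after 60 min at 22° C.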

[1] = test system: phosphorylation of pRb at the Ser780 site in JeKo-1 mantle cell lymphoma cells; assay: CDK4 cellular assay: ELISA of pRb phosphorylation at Ser780 in JeKo-1 cells; format: cell-based; conditions: Homo sapiens
CDK1/cyclin B = CDK1/cyclin B (Homo sapiens (Human), UniProt P06493); assay: CDK1/cyclin B enzymatic activity assay (IMAP-FP); format: biochemical; conditions: 100 nM Tamra Histone-H1 peptide, 20 μM ATP, 120 min at room temperature, read-out: Biochemical CDK1 enzyme IC50
CDK1/cyclin B, sequence (P06493 whole entry, species assumed): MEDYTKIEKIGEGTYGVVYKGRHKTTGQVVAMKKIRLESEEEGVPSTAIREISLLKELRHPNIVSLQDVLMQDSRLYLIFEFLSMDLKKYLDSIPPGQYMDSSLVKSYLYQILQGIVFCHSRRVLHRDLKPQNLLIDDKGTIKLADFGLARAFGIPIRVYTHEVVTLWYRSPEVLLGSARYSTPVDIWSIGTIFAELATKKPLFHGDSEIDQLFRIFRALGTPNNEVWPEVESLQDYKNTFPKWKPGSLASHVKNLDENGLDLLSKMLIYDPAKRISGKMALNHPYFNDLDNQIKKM
CDK1/cyclin B, sequence (P14635 whole entry partner, species assumed): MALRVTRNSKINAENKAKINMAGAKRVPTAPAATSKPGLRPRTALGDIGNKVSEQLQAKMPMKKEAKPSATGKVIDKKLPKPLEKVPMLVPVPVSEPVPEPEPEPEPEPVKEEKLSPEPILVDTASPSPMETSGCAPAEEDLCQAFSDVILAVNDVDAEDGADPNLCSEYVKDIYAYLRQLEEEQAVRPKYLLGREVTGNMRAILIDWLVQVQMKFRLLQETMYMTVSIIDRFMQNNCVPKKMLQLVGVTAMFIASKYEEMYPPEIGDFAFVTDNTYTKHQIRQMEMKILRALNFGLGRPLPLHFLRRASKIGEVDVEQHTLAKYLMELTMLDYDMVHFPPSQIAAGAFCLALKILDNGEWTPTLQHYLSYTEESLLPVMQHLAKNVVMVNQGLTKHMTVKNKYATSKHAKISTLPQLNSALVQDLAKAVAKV
Description: CDK1/Cyclin B Enzymatic Activity Assay
A 384-well microtiter IMAP-FP™ (Molecular Devices Trade Mark Technology) endpoint assay was used for CDK1/cyclin B kinase activity measurements. The same assay was used for IC50 determination of small molecule inhibitors.

[2] = JeKo-1, JeKo-1 cells, p-pRb % inhibition adjusted with total pRb levels, read-out: Normalized cellular ppRb inhibition IC50
[3] = JeKo-1, JeKo-1 cells, p-pRb Ser780 ELISA, non-normalized, read-out: Cellular ppRb inhibition IC50
[4] = JeKo-1 cells, p-pRb % inhibition adjusted with total pRb levels, read-out: Normalized cellular ppRb inhibition IC50
[5] = JeKo-1 cells, p-pRb Ser780 ELISA, non-normalized, read-out: Cellular ppRb inhibition IC50

CDK4/cyclin D1, sequence (P11802 whole entry): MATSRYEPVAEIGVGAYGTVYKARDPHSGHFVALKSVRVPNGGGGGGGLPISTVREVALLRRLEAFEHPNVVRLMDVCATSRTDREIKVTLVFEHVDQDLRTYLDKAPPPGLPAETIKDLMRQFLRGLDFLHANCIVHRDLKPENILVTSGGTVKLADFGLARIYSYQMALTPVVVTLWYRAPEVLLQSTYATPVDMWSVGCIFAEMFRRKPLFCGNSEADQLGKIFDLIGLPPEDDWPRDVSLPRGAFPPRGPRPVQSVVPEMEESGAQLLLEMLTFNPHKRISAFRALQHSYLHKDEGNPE
CDK4/cyclin D1, sequence (P24385 whole entry partner): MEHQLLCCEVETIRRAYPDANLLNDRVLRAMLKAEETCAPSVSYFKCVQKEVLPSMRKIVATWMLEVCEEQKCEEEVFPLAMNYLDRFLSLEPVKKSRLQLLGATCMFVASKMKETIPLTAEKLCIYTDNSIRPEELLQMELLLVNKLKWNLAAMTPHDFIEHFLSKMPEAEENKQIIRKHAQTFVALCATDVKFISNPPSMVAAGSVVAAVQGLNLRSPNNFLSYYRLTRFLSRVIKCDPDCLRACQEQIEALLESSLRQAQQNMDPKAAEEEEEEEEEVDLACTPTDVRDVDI

| SMILES | IC50 (CDK4/cyclin D1) | IC50 [1, 2] | IC50 [1, 3] | IC50 (CDK1/cyclin B; […] CDK1/cyclin B) | IC50 [1, 4] | IC50 [1, 5] | IC50 (CDK1/cyclin B; 0.25 nM CDK1/cyclin B) |
| --- | --- | --- | --- | --- | --- | --- | --- |
| CC(=O)N1[C@@H]2CC[C@H]1CN(c1ccc(Nc3ncc4cc(C(=O)N(C)C)n(C5CCCC5)c4n3)nc1)C(=O)C2 [Example 139, 2-(5-((1S,6R)-9-acetyl-4-oxo-3,9-diazabicyclo[4.2.1]nonan-3-yl)pyridin-2-ylamino)-7-cyclopentyl-N,N-dimethyl-7H-pyrrolo[2,3-d]pyrimidine-6-carboxamide] | 0.114 µM | 0.638 µM | 0.605 µM | > 15 µM | – | – | – |
| CN(C)C(=O)c1cc2cnc(Nc3ccc(N4C[C@H]5CC[C@@H](CC4=O)N5C)cn3)nc2n1C1CCCC1 [Example 140, 7-cyclopentyl-N,N-dimethyl-2-(5-((1R,6S)-9-methyl-4-oxo-3,9-diazabicyclo[4.2.1]nonan-3-yl)pyridin-2-ylamino)-7H-pyrrolo[2,3-d]pyrimidine-6-carboxamide] | 0.005 to 0.006 µM | 0.011 to 0.018 µM | 0.005 to 0.009 µM | > 15 µM | – | – | – |
| CN(C)C(=O)c1cc2cnc(Nc3ccc(N4C[C@@H]5CC[C@H](CC4=O)N5C)cn3)nc2n1C1CCCC1 [Example 141, 7-Cyclopentyl-2-[5-((1S,6R)-9-methyl-4-oxo-3,9-diaza-bicyclo[4.2.1]non-3-yl)-pyridin-2-ylamino]-7H-pyrrolo[2,3-d]pyrimidine-6-carboxylic acid dimethylamide] | 0.045 µM | 0.034 µM | 0.024 µM | > 15 µM | – | – | – |
| CC(C)N1[C@@H]2CC[C@H]1CN(c1ccc(Nc3ncc4cc(C(=O)N(C)C)n(C5CCCC5)c4n3)nc1)C(=O)C2 [Example 142, 7-Cyclopentyl-2-[5-((1S,6R)-9-isopropyl-4-oxo-3,9-diaza-bicyclo[4.2.1]non-3-yl)-pyridin-2-ylamino]-7H-pyrrolo[2,3-d]pyrimidine-6-carboxylic acid dimethylamide] | 0.034 µM | – | – | > 15 µM | 0.013 µM | 0.006 µM | – |
| [2H]C([2H])([2H])N1[C@@H]2CC[C@H]1CN(c1ccc(Nc3ncc4cc(C(=O)N(C)C)n(C5CCCC5)c4n3)nc1)C(=O)C2 [Example 143, 7-Cyclopentyl-2-[5-((1S,6R)-9-trideuteromethyl-4-oxo-3,9-diazabicyclo[4.2.1]non-3-yl)-pyridin-2-ylamino]-7H-pyrrolo[2,3-d]pyrimidine-6-carboxylic acid dimethylamide] | 0.044 µM | 0.251 µM | 0.119 µM | – | – | – | > 15 µM |
| CN(C)C(=O)c1cc2cnc(Nc3ccc(N4C[C@H]5CC[C@@H](CC4=O)N5CC(F)(F)F)cn3)nc2n1C1CCCC1 [Example 144, 7-cyclopentyl-N, N-dimethyl-2-(5-((1R,6S)-4-oxo-9-(2,2,2-trifluoroethyl)-3,9-diazabicyclo[4.2.1]nonan-3-yl)pyridin-2-ylamino)-7H-pyrrolo[2,3-d]pyrimidine-6-carboxamide] | 0.019 µM | – | – | > 15 µM | 0.049 µM | 0.031 µM | – |
| CN(C)C(=O)c1cc2cnc(Nc3ccc(N4CC5COCC(CC4=O)N5)cn3)nc2n1C1CCCC1 (stereo not drawn) [Example 145, 7-Cyclopentyl-2-[5-(4-oxo-8-oxa-3,10-diaza-bicyclo[4.3.1]dec-3-yl)-pyridin-2-ylamino]-7H-pyrrolo[2,3-d]pyrimidine-6-carboxylic acid dimethylamide] | 0.032 µM | – | – | > 15 µM | 0.162 µM | 0.045 µM | – |
| CN(C)C(=O)c1cc2cnc(Nc3ccc(N4CCN5CCC[C@H]5C4=O)cn3)nc2n1C1CCCC1 [Example 146] | 0.619 µM | 2.9 µM | 2.7 µM | > 15 µM | – | – | – |
| CN(C)C(=O)c1cc2cnc(Nc3ccc(N4CCN5CCC[C@@H]5C4=O)cn3)nc2n1C1CCCC1 [Example 147] | 0.027 µM | 0.31 µM | 0.257 µM | > 15 µM | – | – | – |
